{
  "source": "patent US20160000762A1",
  "about": "“IMPROVING COGNITIVE FUNCTION” (THE REGENTS OF THE UNIVERSITY OF CALIFORNIA, priority 2013, published 2016)",
  "key": {"Aβ": {"tested_on": "Aβ", "assay": "Aβ ELISA, brain of injected wild-type mice", "assay_type": "in vivo", "settings": "15 or 30 mg/kg i.p. daily for 2 weeks (both doses)", "method": "Aβ ELISA. Mouse brains were homogenized in tissue homogenization buffer containing 250 mM sucrose, 20 mM Tris base, protease, and phosphatase inhibitors. To measure soluble Aβ, DEA extraction was performed. Crude 10% homogenate was mixed with an equal volume of 0.4% diethylamine (DEA), sonicated, and ultracentrifuged for 1 hr at 100,000×g. The supernatant was collected and neutralized with 10% 0.5 M Tris, pH 6.8. Sensitive and specific ELISAs to rodent Aβ1-40 was purchased from IBL Transatlantic (Toronto, Canada) and conducted per the manufacturer's protocol.\nTo test whether BTA-EG4 alters Aβ production in vitro, primary cortical neurons were treated with BTA-EG4 (1 or 5 μM) or control (10% DMSO), and Aβ levels were measured using ELISA. […] We then examined whether BTA-EG4 can alter Aβ levels in vivo by injecting wild-type mice daily for 2 weeks with BTA-EG4 (15 or 30 mg/kg, 10% DMSO in saline, i.p.). […] Furthermore, BTA-EG4 altered APP processing in vivo, as monitored by increased sAPPα (α-secretase cleavage product) and decreased sAPPβ (β-secretase cleavage product) levels in BTA-EG4 injected wild-type mice (30 mg/kg, i.p) compared to control-injected mice (FIGS. 1E, 1F)."}, "dendritic spines": {"tested_on": "dendritic spines", "assay": "Golgi staining, dendritic spines of APP knockout mice", "assay_type": "in vivo", "settings": "hippocampal CA1 neurons; 30 mg/kg, 2 weeks", "excerpt": "Animals. Wild-type C57BL/6J and APP knockout mice (B6.12957-APPtm1Dbo/J) were obtained from Jackson Laboratories (Bar Harbor, Me., USA). CD1 mice were obtained from Vivasource. All animal experiments were approved by the Institutional Animal Care and Use Committees at Georgetown University and Johns Hopkins University. All animals were maintained according to protocols approved by the Animal Welfare and Use Committee at both institutes.\nGolgi staining and morphological analysis of dendritic spines. To analyze dendritic spine density and morphology in brain, FD RAPID GOLGISTAIN KIT™ (FD NeuroTechnologies, Ellicott City, Md., USA) was used. Dissected mouse brains were immersed in Solution A and B for 2 weeks in dark conditions at room temperature and transferred into Solution C for 24 h at 4° C. Brains were sliced using a VT1000S Vibratome (Leica, Bannockburn, Ill., USA) at 150 μm thickness. Dendritic images were acquired by Axioplan 2 (Zeiss, Oberkochen, Germany) under brightfield microscopy. Spine width, length, and linear density of cortical layers II/III and CA1 of hippocampus were measured using Scion image software (Scion Corporation, Frederick, Md., USA). Images were coded, and dendritic spines counted in a blinded manner. Spines from 0.2 to 2 μm in length were included for analysis. All morphological analysis was done blind to experimental conditions. […]"}, "AMPAR and NMDAR subunits": {"tested_on": "AMPAR and NMDAR subunits", "assay": "Slice surface biotinylation, AMPAR and NMDAR subunits in CA1 slices", "assay_type": "in vivo, mice", "method": "Slice surface biotinylation. Hippocampal slices (400 μm thick) were prepared as described above. CA3 and DG regions were cut away after the slice preparation to isolate CA1. After 30 min recovery at room temperature, the slices were transferred to 30° C. for additional 30 min recovery. The slices were then transferred to ice-cold ACSF for 10 min, and subsequently to ice-cold ACSF containing 1 mg/ml biotin (EZ-Link Sulfo-NHS-SS-Biotin, Pierce) saturated with 5% CO2/95% O2 for 15 min. The slices were then washed in tris-buffered saline (TBS: 50 mM Tris, 0.9% NaCl, pH 7.4) containing 100 mM glycine 5 times for 1 min each before homogenized in ice-cold 0.2% SDS/1% Triton X-100 IPB (20 mM Na3PO4, 150 mM NaCl, 10 mM EDTA, 10 mM EGTA, 10 mM Na4P2O7, 50 mM NaF, and 1 mM Na3VO4, pH 7.4; with […] okadaic acid and 10 KIU/ml aprotinin) by 30 gentle strokes using glass-Teflon tissue homogenizers (Pyrex). The homogenates were centrifuged for 10 min at 13,200×g, 4° C. Protein concentration of the supernatant was normalized to 0.6-1.5 mg/ml. Some of the supernatants were saved as inputs, and the remaining supernatant was mixed with neutravidin slurry [1:1 in 1% Triton X-100 IPB (TX-IPB)] and rotated overnight at 4° C. The neutravidin beads were isolated by brief centrifugation at 1,000×g, and washed 3×1% TX-IPB, 3×1% TX-IPB+500 mM NaCl, followed by 2×1% TX-IPB. The biotinylated surface proteins were then eluded from the neutravidin beads by rotating at room temperature for 15 min in gel sample buffer with 2 mM DTT. The input (total homogenate) and biotinylated samples (surface fraction) were run on separate gels, and processed for immunoblot analysis using GluA1 (sc-55509, Santa Cruz), GluA2/3 (07-598, Upstate/Millipore), GluN1 (a gift from Dr. R. Huganir), GluN2A (07-632, Upstate/Millipore), and GluN2B (71-8600, Invitrogen) antibodies. NMDAR subunit blots were developed using enhanced chemifluorescence substrate (ECF™ substrate, Amersham). AMPAR blots were probed simultaneously with GluR1 and GluR2/3 antibodies followed by second antibodies linked to Cy5 and Cy3. All blots were scanned using TYPHOON™ 9400 (GE Health), and quantified using Image Quant TL software (GE Health). The signal of each sample on a blot was normalized to the average signal from the control group to obtain the % of average control values, which were compared across groups using unpaired Student's t-test.\nTo test whether the increase in functional excitatory synapses is via cell surface recruitment of glutamate receptors, we performed steady-state surface biotinylation using acute hippocampal slices obtained from mice injected with BTA-EG4 (30 mg/kg) or control vehicle for 2 weeks. Both the cell surface and total levels of major AMPAR subunits GluA1 and GluA2, as well as NMDAR subunits GluN1, GluN2A and GluN2B, were quantified."}},
  "data": [
    {"substance": "BTA-EG4", "values": [
      {"measurement": "Aβ peptide levels in brain", "setting": "Aβ", "result": "significantly decreased"},
      {"measurement": "dendritic spine density", "setting": "dendritic spines", "result": "did not find a statistically significant increase"},
      {"measurement": "cell surface or total expression of GluA1, GluA2, GluN1, GluN2A, GluN2B", "setting": "AMPAR and NMDAR subunits; 30 mg/kg, 2 weeks", "result": "no significant change"},
      {"measurement": "GluA1/β-actin ratio", "setting": "AMPAR and NMDAR subunits; total homogenate, CTRL=0.96±0.10", "result": "1.06±0.12"},
      {"measurement": "GluA2/β-actin ratio", "setting": "AMPAR and NMDAR subunits; total homogenate, CTRL=0.98±0.09", "result": "1.27±0.14"},
      {"measurement": "GluN1/β-actin ratio", "setting": "AMPAR and NMDAR subunits; total homogenate, CTRL=0.98±0.12", "result": "1.27±0.05"},
      {"measurement": "GluN2B/β-actin ratio", "setting": "AMPAR and NMDAR subunits; total homogenate, CTRL=1.02±0.11", "result": "1.33±0.14"},
      {"measurement": "GluN2A/β-actin ratio", "setting": "AMPAR and NMDAR subunits; total homogenate, CTRL=1.03±0.08", "result": "1.04±0.14"}
    ]}
  ]
}
